Experimental data published in the kinase profiling compilation of Christmann-Franck et al. (2016).

What was measured:
Test in all cases: KINOMEscan competition binding
[1] = molecular target: EGFR (human) (UniProt P00533); conditions: compound 10.0 µM
[2] = molecular target: PIK3CD (human) (UniProt O00329); conditions: compound 10.0 µM
[3] = molecular target: SGK3 (human) (UniProt Q96BR1); conditions: compound 10.0 µM
[4] = molecular target: MAK (human) (UniProt P20794); conditions: compound 10.0 µM
[5] = molecular target: AURKC (human) (UniProt Q9UQB9); conditions: compound 10.0 µM
[6] = molecular target: RIPK1 (human) (UniProt Q13546); conditions: compound 10.0 µM
[7] = molecular target: INSR (human) (UniProt P06213); conditions: compound 10.0 µM
[8] = molecular target: RIPK4 (human) (UniProt P57078); conditions: compound 10.0 µM
Sequence of RIPK4 (human) (P57078 whole entry, looked up): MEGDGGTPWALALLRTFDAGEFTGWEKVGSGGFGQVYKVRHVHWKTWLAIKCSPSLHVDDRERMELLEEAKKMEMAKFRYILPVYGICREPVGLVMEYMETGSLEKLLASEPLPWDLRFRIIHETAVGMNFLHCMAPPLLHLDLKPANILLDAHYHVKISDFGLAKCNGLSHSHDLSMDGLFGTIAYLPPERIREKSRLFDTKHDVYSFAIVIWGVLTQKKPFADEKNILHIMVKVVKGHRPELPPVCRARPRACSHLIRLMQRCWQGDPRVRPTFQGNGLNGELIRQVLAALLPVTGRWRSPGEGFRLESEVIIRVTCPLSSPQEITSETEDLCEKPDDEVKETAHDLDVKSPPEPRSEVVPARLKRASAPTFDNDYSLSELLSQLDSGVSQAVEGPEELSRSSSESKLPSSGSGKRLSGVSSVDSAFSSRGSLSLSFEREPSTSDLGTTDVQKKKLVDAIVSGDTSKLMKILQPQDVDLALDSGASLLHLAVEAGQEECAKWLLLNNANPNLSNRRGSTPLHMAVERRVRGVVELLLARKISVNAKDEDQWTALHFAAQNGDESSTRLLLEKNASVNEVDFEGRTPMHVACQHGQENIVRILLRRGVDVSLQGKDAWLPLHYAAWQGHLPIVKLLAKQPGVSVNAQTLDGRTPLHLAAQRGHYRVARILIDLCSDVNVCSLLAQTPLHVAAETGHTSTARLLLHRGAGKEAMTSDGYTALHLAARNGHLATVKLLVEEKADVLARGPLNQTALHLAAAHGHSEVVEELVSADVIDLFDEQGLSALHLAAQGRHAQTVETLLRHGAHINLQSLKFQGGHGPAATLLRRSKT

[9] = molecular target: CDK19 (human) (UniProt Q9BWU1); conditions: compound 10.0 µM
Sequence of CDK19 (human) (Q9BWU1 whole entry, looked up): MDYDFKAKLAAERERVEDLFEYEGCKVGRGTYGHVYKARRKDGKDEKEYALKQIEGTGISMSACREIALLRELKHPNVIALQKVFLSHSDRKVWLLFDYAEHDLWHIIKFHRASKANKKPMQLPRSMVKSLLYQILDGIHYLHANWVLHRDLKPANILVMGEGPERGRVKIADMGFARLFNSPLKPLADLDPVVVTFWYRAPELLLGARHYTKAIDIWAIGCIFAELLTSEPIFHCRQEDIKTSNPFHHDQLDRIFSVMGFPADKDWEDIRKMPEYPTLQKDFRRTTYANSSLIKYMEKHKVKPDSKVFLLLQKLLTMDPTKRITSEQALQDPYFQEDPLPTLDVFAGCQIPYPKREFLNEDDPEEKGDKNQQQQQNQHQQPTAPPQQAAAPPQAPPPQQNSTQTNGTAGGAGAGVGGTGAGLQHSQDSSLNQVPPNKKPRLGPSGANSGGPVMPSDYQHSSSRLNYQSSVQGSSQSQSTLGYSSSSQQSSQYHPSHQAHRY

[10] = system: ABL1 (human), P00519 [E255K]; conditions: compound 10.0 µM
[11] = molecular target: MAPK7 (human) (UniProt Q13164); conditions: compound 10.0 µM
[12] = molecular target: PAK4 (human) (UniProt O96013); conditions: compound 10.0 µM
[13] = molecular target: CDKL5 (human) (UniProt O76039); conditions: compound 10.0 µM
[14] = molecular target: MAP3K7 (human) (UniProt O43318); conditions: compound 10.0 µM
[15] = molecular target: PKMYT1 (human) (UniProt Q99640); conditions: compound 10.0 µM
Sequence of PKMYT1 (human) (Q99640 whole entry, looked up): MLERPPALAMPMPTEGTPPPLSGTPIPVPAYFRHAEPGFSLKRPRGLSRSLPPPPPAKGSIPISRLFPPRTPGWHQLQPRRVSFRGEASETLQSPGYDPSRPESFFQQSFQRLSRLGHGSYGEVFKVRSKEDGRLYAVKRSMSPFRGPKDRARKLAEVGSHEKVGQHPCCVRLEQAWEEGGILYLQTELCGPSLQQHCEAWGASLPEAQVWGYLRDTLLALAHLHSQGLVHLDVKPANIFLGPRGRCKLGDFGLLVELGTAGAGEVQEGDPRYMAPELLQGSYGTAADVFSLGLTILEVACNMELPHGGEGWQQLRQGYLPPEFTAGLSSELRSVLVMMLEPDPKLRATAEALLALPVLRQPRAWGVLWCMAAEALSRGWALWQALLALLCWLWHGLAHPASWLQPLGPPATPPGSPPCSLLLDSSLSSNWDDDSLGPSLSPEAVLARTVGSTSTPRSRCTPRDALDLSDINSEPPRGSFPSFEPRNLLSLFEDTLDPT

[16] = molecular target: RPS6KA4 KD2 (human) (UniProt O75676); conditions: compound 10.0 µM
[17] = molecular target: PRKG1 (human) (UniProt Q13976); conditions: compound 10.0 µM
Sequence of PRKG1 (human) (Q13976 whole entry, looked up): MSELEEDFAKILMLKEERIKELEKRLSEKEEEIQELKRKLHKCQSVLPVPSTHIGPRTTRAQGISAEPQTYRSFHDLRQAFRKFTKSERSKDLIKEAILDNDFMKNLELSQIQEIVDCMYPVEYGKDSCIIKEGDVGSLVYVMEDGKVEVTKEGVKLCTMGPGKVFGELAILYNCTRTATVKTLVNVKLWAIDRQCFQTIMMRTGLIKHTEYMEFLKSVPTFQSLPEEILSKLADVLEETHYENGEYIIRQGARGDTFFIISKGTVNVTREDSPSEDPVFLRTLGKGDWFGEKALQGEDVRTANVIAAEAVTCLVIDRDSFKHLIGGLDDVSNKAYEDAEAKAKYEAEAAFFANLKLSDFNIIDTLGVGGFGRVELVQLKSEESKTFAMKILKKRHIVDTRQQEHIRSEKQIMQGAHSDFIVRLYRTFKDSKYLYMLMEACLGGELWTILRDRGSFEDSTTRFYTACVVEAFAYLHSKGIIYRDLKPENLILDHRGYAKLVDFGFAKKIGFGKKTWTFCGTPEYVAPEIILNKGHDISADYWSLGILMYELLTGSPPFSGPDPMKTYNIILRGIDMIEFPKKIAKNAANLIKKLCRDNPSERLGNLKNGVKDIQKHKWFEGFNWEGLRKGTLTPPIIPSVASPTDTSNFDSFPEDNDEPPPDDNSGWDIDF

[18] = molecular target: CDK18 (human) (UniProt Q07002); conditions: compound 10.0 µM
[19] = molecular target: CDK11B (human) (UniProt P21127); conditions: compound 10.0 µM
Sequence of CDK11B (human) (P21127 whole entry, looked up): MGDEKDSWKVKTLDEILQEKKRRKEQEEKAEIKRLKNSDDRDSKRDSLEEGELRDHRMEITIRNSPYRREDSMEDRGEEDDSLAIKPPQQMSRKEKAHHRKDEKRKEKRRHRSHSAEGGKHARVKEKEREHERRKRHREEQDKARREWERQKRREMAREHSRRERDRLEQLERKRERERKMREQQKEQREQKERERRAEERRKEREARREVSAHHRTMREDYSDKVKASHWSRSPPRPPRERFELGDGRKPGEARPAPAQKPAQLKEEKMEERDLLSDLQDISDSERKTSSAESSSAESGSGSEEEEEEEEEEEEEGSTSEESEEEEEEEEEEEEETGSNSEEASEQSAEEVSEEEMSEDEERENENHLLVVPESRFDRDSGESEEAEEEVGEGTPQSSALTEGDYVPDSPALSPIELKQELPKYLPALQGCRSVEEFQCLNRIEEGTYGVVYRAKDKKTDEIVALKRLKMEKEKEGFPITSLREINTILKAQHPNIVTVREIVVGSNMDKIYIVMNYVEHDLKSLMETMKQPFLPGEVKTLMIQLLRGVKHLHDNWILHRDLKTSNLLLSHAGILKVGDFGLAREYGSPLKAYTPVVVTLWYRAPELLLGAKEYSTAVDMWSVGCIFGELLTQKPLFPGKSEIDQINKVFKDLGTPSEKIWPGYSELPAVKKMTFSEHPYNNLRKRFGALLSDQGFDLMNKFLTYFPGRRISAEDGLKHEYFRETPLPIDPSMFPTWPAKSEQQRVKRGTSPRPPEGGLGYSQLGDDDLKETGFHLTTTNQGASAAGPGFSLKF

[20] = molecular target: FGFR4 (human) (UniProt P22455); conditions: compound 10.0 µM
[21] = molecular target: EIF2AK1 (human) (UniProt Q9BQI3); conditions: compound 10.0 µM
[22] = molecular target: FRK (human) (UniProt P42685); conditions: compound 10.0 µM
Sequence of FRK (human) (P42685 whole entry, looked up): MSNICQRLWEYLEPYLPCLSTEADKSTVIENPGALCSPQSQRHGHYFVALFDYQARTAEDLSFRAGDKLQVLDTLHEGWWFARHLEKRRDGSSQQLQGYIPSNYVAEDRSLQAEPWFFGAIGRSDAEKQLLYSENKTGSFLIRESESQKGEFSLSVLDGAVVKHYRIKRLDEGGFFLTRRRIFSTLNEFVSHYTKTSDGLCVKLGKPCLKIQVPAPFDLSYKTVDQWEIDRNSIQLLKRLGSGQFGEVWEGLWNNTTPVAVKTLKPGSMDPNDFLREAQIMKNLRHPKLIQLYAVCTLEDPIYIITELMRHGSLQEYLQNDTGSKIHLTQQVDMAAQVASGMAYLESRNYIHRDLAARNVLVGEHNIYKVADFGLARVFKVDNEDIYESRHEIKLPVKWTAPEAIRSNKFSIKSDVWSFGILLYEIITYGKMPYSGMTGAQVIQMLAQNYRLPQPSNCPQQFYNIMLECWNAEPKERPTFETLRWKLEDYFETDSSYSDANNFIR

[23] = molecular target: STK39 (human) (UniProt Q9UEW8); conditions: compound 10.0 µM
[24] = molecular target: RPS6KA1 KD1 (human) (UniProt Q15418); conditions: compound 10.0 µM
[25] = molecular target: MAP2K2 (human) (UniProt P36507); conditions: compound 10.0 µM
[26] = molecular target: TAOK1 (human) (UniProt Q7L7X3); conditions: compound 10.0 µM
[27] = molecular target: MAPK1 (human) (UniProt P28482); conditions: compound 10.0 µM
[28] = molecular target: MYLK (human) (UniProt Q15746); conditions: compound 10.0 µM
[29] = system: FLT3 (human), P36888 [D835H]; conditions: compound 10.0 µM
[30] = molecular target: MAPK6 (human) (UniProt Q16659); conditions: compound 10.0 µM
[31] = molecular target: TEK (human) (UniProt Q02763); conditions: compound 10.0 µM
[32] = molecular target: CAMKK2 (human) (UniProt Q96RR4); conditions: compound 10.0 µM
[33] = molecular target: TYK2 JH2 pseudokinase (human) (UniProt P29597); conditions: compound 10.0 µM
[34] = molecular target: PRKD1 (human) (UniProt Q15139); conditions: compound 10.0 µM
[35] = molecular target: JAK3 JH1 catalytic (human) (UniProt P52333); conditions: compound 10.0 µM
[36] = molecular target: RPS6KA5 KD2 (human) (UniProt O75582); conditions: compound 10.0 µM
[37] = molecular target: TBK1 (human) (UniProt Q9UHD2); conditions: compound 10.0 µM
[38] = molecular target: SRPK2 (human) (UniProt P78362); conditions: compound 10.0 µM
[39] = molecular target: RPS6KA6 KD2 (human) (UniProt Q9UK32)
Sequence of RPS6KA6 KD2 (human) (Q9UK32 whole entry, looked up): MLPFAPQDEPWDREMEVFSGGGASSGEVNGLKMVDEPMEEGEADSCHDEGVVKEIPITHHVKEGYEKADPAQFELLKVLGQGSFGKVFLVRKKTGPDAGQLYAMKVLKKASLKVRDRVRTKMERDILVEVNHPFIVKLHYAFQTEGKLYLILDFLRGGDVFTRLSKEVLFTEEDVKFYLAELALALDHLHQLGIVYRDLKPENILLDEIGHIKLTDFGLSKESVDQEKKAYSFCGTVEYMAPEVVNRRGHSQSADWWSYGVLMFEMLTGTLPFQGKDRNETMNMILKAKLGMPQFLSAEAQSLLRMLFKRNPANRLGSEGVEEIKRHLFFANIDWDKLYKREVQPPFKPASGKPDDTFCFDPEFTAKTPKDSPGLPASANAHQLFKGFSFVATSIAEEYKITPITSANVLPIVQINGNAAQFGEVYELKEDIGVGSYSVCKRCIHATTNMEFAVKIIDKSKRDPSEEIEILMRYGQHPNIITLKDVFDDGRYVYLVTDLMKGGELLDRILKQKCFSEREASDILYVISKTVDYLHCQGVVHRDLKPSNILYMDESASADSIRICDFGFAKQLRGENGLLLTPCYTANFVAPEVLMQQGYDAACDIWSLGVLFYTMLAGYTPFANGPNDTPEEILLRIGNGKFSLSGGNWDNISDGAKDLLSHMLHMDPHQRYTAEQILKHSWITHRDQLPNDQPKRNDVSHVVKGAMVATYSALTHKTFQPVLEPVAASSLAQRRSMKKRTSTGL

[40] = system: EGFR (human), P00533 [G719S]; conditions: compound 10.0 µM
[41] = system: EGFR (human), P00533 [747-751 del / S ins]; conditions: compound 10.0 µM

Sequence of SGK3 (human) (Q96BR1 whole entry, looked up): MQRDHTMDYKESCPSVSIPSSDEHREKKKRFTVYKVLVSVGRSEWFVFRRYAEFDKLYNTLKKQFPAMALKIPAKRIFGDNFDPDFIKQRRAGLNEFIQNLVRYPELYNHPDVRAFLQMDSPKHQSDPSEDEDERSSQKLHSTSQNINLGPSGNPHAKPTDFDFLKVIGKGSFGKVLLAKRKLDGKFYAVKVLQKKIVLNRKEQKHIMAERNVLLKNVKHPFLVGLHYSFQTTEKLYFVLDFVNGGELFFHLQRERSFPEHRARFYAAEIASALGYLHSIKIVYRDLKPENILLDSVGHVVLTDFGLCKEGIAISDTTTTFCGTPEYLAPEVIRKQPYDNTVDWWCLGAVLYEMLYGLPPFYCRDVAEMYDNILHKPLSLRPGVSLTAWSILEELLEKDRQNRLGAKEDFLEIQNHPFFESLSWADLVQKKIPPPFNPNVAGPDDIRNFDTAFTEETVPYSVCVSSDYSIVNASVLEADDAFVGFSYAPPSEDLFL

In the case of `COc1cc(C(=O)N2CCC(N3CCN(C)CC3)CC2)ccc1Nc1ncc2c(n1)N(C)c1ccccc1C(=O)N2C`, the kinase still bound, per cent of control [1] is reported as 84%, the kinase still bound, per cent of control [2] is reported as 62% and the kinase still bound, per cent of control [3] is reported as 95%. The kinase still bound, per cent of control [4] was 72%, the kinase still bound, per cent of control [5] was 50% and the kinase still bound, per cent of control [6] was 99%. The kinase still bound, per cent of control [7] was 84%, the kinase still bound, per cent of control [8] was 74% and the residual activity [9] was 100%. The kinase still bound, per cent of control [10] was 80%, the kinase still bound, per cent of control [11] was 0.05% and the kinase still bound, per cent of control [12] was 94%. It also gave a residual activity [13] of 100%, a kinase still bound, per cent of control [14] of 98% and a kinase still bound, per cent of control [15] of 80%. It also gave a kinase still bound, per cent of control [16] of 46%, a kinase still bound, per cent of control [17] of 98% and a residual activity [18] of 100%. The residual activity [19] was 84%, the kinase still bound, per cent of control [20] was 28% and the kinase still bound, per cent of control [21] was 100%. The kinase still bound, per cent of control [22] was 34%, the residual activity [23] was 39% and the kinase still bound, per cent of control [24] was 73%. For the same compound, the kinase still bound, per cent of control [25] was 99%, the kinase still bound, per cent of control [26] was 28% and the kinase still bound, per cent of control [27] was 85%. For the same compound, the residual activity [28] was 8.7%, the kinase still bound, per cent of control [29] was 100% and the kinase still bound, per cent of control [30] was 100%. For the same compound, the kinase still bound, per cent of control [31] was 100%, the kinase still bound, per cent of control [32] was 31% and the kinase still bound, per cent of control [33] was 100%. The kinase still bound, per cent of control [34] was 28%, the kinase still bound, per cent of control [35] was 100% and the kinase still bound, per cent of control [36] was 92%. For the same compound, the kinase still bound, per cent of control [37] was 97%, the kinase still bound, per cent of control [38] was 100% and the Kd [39] was 620 nM. It also gave a kinase still bound, per cent of control ([39]; compound 10.0 µM) of 2.2%, a kinase still bound, per cent of control [40] of 86% and a kinase still bound, per cent of control [41] of 100%.
